{
  "source": "patent US7767789B2",
  "about": "“Truncated proteins as cancer markers” (University Hopitals of Cleveland, priority 2005, dated 2010)",
  "key": {"MDCK-P2X7 cells": {"tested_on": "MDCK-P2X7 cells", "assay": "Apoptosis, Cell Death Detection ELISA-PLUS, MDCK cells", "type": "cell-based, canine", "conditions": "doxycycline treated MDCK-P2X7 cells; BzATP 50 micromolar", "method": "Baseline and BzATP-induced apoptosis in MDCK cells and in HEK-293 cells expressing P2X7 and P2X7-j proteins were studied. FIG. 17. […] Cells were treated with BzATP (50 micromolar) to activate the P2X7 receptors. Apoptosis was quantified using Cell Death Detection ELISA-PLUS photometric enzyme-immunoassay that determines cytoplasmic histone-associated-DNA-fragments (mono and oligonucleosomes) after spontaneous or induced cell death (Roche, Cat. No. 1774425, 96 tests). […] Expression of the P2X7-j proteins either had no effect (HEK-293 cells) or may have decreased apoptosis (MDCK cells)."}, "[1]": {"target": "T1, P2X7 channel (MDCK cells expressing P2X7 or P2X7-j) (Homo sapiens, UniProt Q99572, R270H/Y155H)", "T1 construct": "expressed in transfected cells; host or cells: MDCK (canine kidney), doxycycline-inducible promoter", "T1 sequence (Q99572 whole entry Y155H/R270H)": "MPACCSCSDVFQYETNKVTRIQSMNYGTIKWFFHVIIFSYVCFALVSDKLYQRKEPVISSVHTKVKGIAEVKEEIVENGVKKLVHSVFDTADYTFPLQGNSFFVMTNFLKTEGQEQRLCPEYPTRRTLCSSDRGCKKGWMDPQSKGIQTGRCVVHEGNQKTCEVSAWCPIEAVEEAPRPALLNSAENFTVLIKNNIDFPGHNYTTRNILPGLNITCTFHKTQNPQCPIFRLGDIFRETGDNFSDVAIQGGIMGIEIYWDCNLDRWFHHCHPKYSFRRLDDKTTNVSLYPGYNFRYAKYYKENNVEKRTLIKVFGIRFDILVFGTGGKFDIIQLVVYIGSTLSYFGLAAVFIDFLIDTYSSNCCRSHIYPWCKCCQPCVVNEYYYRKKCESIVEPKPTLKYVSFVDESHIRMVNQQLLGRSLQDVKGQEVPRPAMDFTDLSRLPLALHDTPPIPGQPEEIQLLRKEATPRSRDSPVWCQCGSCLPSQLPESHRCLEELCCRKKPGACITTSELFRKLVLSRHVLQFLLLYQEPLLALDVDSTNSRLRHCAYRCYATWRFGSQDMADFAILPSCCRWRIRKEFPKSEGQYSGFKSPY", "assay": "BzATP-stimulated channel activation (Fluo-4 calcium), MDCK cells", "type": "cell-based", "conditions": "MDCK-P2X7 cells; 100 micromolar BzATP", "method": "(§1) 2′-3′-O-(4-benzoyl-benzoyl)adenosine 5′-triphosphate (BzATP) stimulated channel activation of P2X7 and P2X7-j was determined. FIG. 11. As discussed earlier, activation of P2X7 receptors provides influx of selected cations through the ATP-activated channel provided by the P2X7 protein. MDCK or HEK-293 cells expressing either P2X7 or P2X7-j were loaded with the calcium-sensitive dye Fluo-4 and treated with 100 micromolar of BzATP. Calcium entry into the cells via the P2X7 channel after BzATP activation was measured in terms of changes in Fluo-4 fluorescence.\n(§2) A quantification of the changes in cytosolic calcium after BzATP exposure provided data that was similar to that presented in FIG. 11. FIG. 12."}, "[2]": {"target": "T2, P2X7 channel (MDCK cells expressing P2X7 or P2X7-j) (Homo sapiens, UniProt Q99572, Y155H)", "T2 construct": "expressed in transfected cells; host or cells: MDCK (canine kidney), doxycycline-inducible promoter", "T2 sequence (Q99572 1-258 isoform Q99572-9 Y155H)": "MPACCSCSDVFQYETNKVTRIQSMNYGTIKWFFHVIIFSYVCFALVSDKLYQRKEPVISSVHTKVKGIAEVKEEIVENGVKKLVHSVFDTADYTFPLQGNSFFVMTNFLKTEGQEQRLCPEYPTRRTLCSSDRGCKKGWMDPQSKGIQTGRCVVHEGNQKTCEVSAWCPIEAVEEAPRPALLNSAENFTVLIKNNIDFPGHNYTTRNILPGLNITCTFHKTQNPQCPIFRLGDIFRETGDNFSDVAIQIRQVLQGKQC", "assay": "BzATP-stimulated channel activation (Fluo-4 calcium), MDCK cells", "type": "cell-based", "conditions": "MDCK-P2X7-j cells compared to MDCK-P2X7 cells", "method": "as §1, §2"}, "[3]": {"target": "T3, P2X7 channel (HEK-293 cells expressing P2X7 or P2X7-j) (Homo sapiens, UniProt Q99572, Y155H)", "T3 construct": "expressed in transfected cells; host or cells: HEK-293", "T3 sequence (Q99572 1-258 isoform Q99572-9 Y155H)": "as above", "type": "cell-based", "conditions": "HEK-293-P2X7-j cells compared to HEK-293-P2X7 cells"}, "[4]": {"tested_on": "P2X7 channel (HEK-293 cells expressing P2X7 or P2X7-j)", "type": "cell-based, human", "conditions": "P2X7 plus P2X7-j HEK-293 cells compared to P2X7 HEK-293 cells"}, "[5]": {"target": "T4, P2X7 channel (HEK-293 cells expressing P2X7 or P2X7-j) (Homo sapiens, UniProt Q99572, R270H/Y155H)", "T4 construct": "expressed in transfected cells; host or cells: HEK-293", "T4 sequence (Q99572 whole entry Y155H/R270H)": "as the sequence (Q99572 whole entry Y155H/R270H) above", "type": "cell-based", "conditions": "HEK-293-P2X7 cells; 100 micromolar BzATP"}, "CaSki cells": {"tested_on": "CaSki cells", "assay": "DNA solubilization assay (apoptosis)", "type": "cell-based, human", "method": "Twenty-four hours before the end of the experiment, cells were labeled with [^3H]thymidine (specific activity, 93 Ci/mmol; 5 μCi/1×10^6 cells) for 16 h. The medium was removed, and cells were washed three times with fresh medium lacking [^3H]thymidine and were incubated in the same medium for an additional 6 h. At the end of incubation, the supernatant was stored, and cells were lysed in 0.5 ml lysis buffer (10 mM Tris-HCl, pH 7.5; plus 1 mM EDTA-0.2% Triton X-100) for 1 h at 4° C. The intact chromatin was separated from the fragmented DNA by 5 min centrifugation at 4° C. in Eppendorf microcentrifuge at 12,000×g. The supernatant (lysate) was stored, while the pellet was resuspended in 0.5 ml of 1% sodium dodecyl sulfate (SDS). The radioactivity contained in the supernatants, lysates; and pellets was counted in a scintillation counter, and DNA fragmentation was calculated as: [% Solubilized DNA]=([cpm supernatant+cpm lysates]/[cpm supernatant+cpm lysate+cpm pellet])×100."}, "[6]": {"tested_on": "β-arrestin-2-GFP in CaSki cells", "assay": "Real-time confocal microscopy of β-arrestin-2-GFP, CaSki cells", "type": "cell-based, human", "conditions": "CaSki transfected with β-arrestin-2-GFP; not shown", "method": "CaSki cells transfected with the β-arrestin-2-GFP, or HEK-293 cells co-transfected with the full-length human P2X7-receptor and the β-arrestin-2-GFP were plated on 35-mm glass-bottom culture dishes (MatTek Corporation, Ashland, MA). Dishes contained a centered, 1 cm well formed from a glass coverslip sealed hole in the plastic. Two hours before experiments the medium was replaced with serum-free medium supplemented with 10 mM HEPES. The distribution of the β-arrestin-2-GFP was visualized before and after treatment with the agonist by real-time confocal microscopy. Imaging of the β-arrestin-2-GFP fluorescence in the same cells was performed on a Zeiss laser-scanning confocal microscope (LSM-510) using a heated (37° C.) microscope stage. Barak et al., “A beta-arrestin/green fluorescent protein biosensor for detecting G protein-coupled receptor activation” J Biol Chem 272:27497-27500 (1997).\nImages were collected sequentially before and after treatment with agonist for 0-30 min at 37° C. using single line excitation (488 nm)."}, "[7]": {"tested_on": "HEK-293 cells expressing P2X7 or P2X7-j", "assay": "Cell selection: growth with BzATP and immunoblot of P2X7/P2X7-j protein, HEK-293", "type": "cell-based, human", "method": "Growth of various cell lines expressing P2X7 and/or P2X7-j in the presence or absence of BzATP was performed to determine how P2X7 receptors may affect cell selection over time. FIG. 23. HEK-293 cells expressing P2X7, HEK-293 cells expressing P2X7-j, or HeLa cells, which express both P2X7 and P2X7-j were separately grown in culture, in the presence or absence of 50 micromolar BzATP for seven (7) days. At various time points, samples of the cells were taken and examined for expression of P2X7 and/or P2X7-j protein by immunoblotting using a P2X7-specific antibody. This antibody was obtained from Alomone Labs (Jerusalem, Israel) and was reactive with the extracellular domain of P2X7 protein. Amino acids 136-152 of the mouse P2X7 receptor ([…]; (SEQ ID NO:7)) were used as the antigen to prepare the antibody. A labeled secondary antibody was used to visualize reactive protein bands. By layering equal amounts of total protein (15 micrograms) it was possible to compare the relative expression of the P2X7 and/or P2X7-j proteins by the cells."}},
  "data": [
    {"substance": "2′-3′-O-(4-benzoylbenzoyl)adenosine 5′-triphosphate [BzATP]", "values": [
      {"measurement": "apoptosis", "setting": "MDCK-P2X7 cells", "result": "increased apoptosis"},
      {"measurement": "Fluo-4 signal (cytosolic calcium)", "setting": "[1]", "result": "increased acutely the Fluo-4 signal"},
      {"measurement": "calcium response to BzATP", "setting": "[2]", "result": "significantly smaller"},
      {"measurement": "calcium response to BzATP", "setting": "[3]", "result": "significantly smaller"},
      {"measurement": "calcium response to BzATP", "setting": "[4]", "result": "significantly smaller"},
      {"measurement": "Fluo-4 signal (cytosolic calcium)", "setting": "[5]", "result": "increased acutely the Fluo-4 signal"},
      {"measurement": "DNA solubilization", "setting": "CaSki cells; 100 μM BzATP for 9 h, baseline 1.9%", "result": 7.8, "unit": "%"},
      {"measurement": "DNA solubilization", "setting": "CaSki cells; 100 μM BzATP for 9 h or 10 μM TNFα for 14 h", "result": "significantly increased DNA solubilization"},
      {"measurement": "re-distribution of GFP fluorescence towards cell periphery", "setting": "[6]", "result": "A similar effect was observed"},
      {"measurement": "expression of the P2X7-j protein", "setting": "[7]; HEK-293 cells expressing P2X7-j, continuous 50 micromolar BzATP", "result": "did not decrease the expression of the P2X7-j protein"},
      {"measurement": "expression of the P2X7 protein", "setting": "[7]; HEK-293 cells expressing P2X7, 50 micromolar BzATP, each day up to 7 days", "result": "less than in cells not treated with BzATP"}
    ]}
  ]
}
